Patent publication US6737383B1, “Herbicidal oxadiazolidines” (priority 1999, dated 2004)

Columns and labels:
[1] = system: purple nutsedge; assay: Test B pre/postemergence purple nutsedge; type: in vivo, Cyperus rotundus
Outline: (§1)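 Test chemicals in a non-phytotoxic solvent mixture with surfactant were sprayed preemergence onto planted seeds and postemergence onto plants 2 to 18 cm tall (1- to 4-leaf stage). After twelve to sixteen days in a greenhouse, injury was visually rated against untreated controls from 0 (no effect) to 10 (complete control).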

[2] = system: corn; assay: Test B pre/postemergence corn; type: in vivo, Zea mays
Outline: as §1

[3] = system: velvetleaf; assay: Test B pre/postemergence velvetleaf; type: in vivo, Abutilon theophrasti
Outline: as §1

[4] = system: wheat; assay: Test B pre/postemergence wheat; type: in vivo, Triticum aestivum
Outline: as §1

[5] = system: rice; assay: Test B flood test rice; type: in vivo, Oryza sativa
Outline: (§2)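 Plants were grown to the 2-leaf stage before treatment with test chemical, then held in a greenhouse for twelve to sixteen days. Injury was visually rated against untreated controls on a 0–10 scale, where 0 is no effect and 10 is complete control.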

[6] = system: cocklebur; assay: Test B pre/postemergence cocklebur; type: in vivo, Xanthium strumarium
Outline: as §1

[7] = system: pigweed; assay: Test B pre/postemergence pigweed; type: in vivo, Amaranthus retroflexus
Outline: as §1

[8] = system: bamyardgrass; assay: Test B flood test barnyardgrass; type: in vivo, Echinochloa crus-galli
Outline: as §2

[9] = system: crabgrass; assay: Test B pre/postemergence crabgrass; type: in vivo, Digitaria sanguinalis
Outline: as §1

[10] = system: wild oat; assay: Test B pre/postemergence wild oat; type: in vivo, Avena fatua
Outline: as §1

[11] = system: rape; assay: Test B pre/postemergence rape; type: in vivo, Brassica napus
Outline: as §1

[12] = system: sugar beet; assay: Test B pre/postemergence sugar beet; type: in vivo, Beta vulgaris
Outline: as §1

[13] = system: blackgrass; assay: Test B pre/postemergence blackgrass; type: in vivo, Alopecurus myosuroides
Outline: as §1

[14] = system: giant foxtail; assay: Test B pre/postemergence giant foxtail; type: in vivo, Setaria faberii
Outline: as §1

[15] = system: soybean; assay: Test B pre/postemergence soybean; type: in vivo, Glycine max
Outline: as §1

[16] = system: surinam grass; assay: Test B pre/postemergence surinam grass; type: in vivo, Brachiaria decumbens
Outline: as §1

[17] = system: duck salad; assay: Test B flood test duck salad; type: in vivo, Heteranthera limosa
Outline: as §2

[18] = system: smallflower flatsedge; assay: Test B flood test smallflower flatsedge; type: in vivo, Cyperus difformis
Outline: as §2

[19] = system: morningglory; assay: Test B pre/postemergence morningglory; type: in vivo, Ipomoea hederacea
Outline: as §1

[20] = Postemergence, Rate 250 g/ha, scale 0 to 10
[21] = Postemergence, Rate 500 g/ha, scale of 0 to 10 where 0 is no effect and 10 is complete control
[22] = Preemergence, Rate 62 g/ha, scale 0 to 10 (0 no effect, 10 complete control)
[23] = Preemergence, Rate 125 g/ha, scale of 0 to 10 where 0 is no effect and 10 is complete control
[24] = Preemergence, Rate 250 g/ha, scale 0 to 10, 0 is no effect, 10 is complete control
[25] = Preemergence, Rate 500 g/ha, scale 0 to 10, 0 is no effect, 10 is complete control
[26] = Rate 125 g/ha, Postemergence, scale 0 to 10, 0 is no effect, 10 is complete control
[27] = Rate 62 g/ha, Postemergence, scale of 0 to 10 where 0 is no effect and 10 is complete control
[28] = Postemergence block (flood test species), Rate 250 g/ha, scale 0 to 10
[29] = Postemergence section (flood test species), Rate 500 g/ha, scale of 0 to 10 where 0 is no effect and 10 is complete control
[30] = Rate 125 g/ha, Postemergence section (flood test species), scale 0 to 10, 0 is no effect, 10 is complete control
[31] = Rate 62 g/ha, Postemergence (flood test species), scale of 0 to 10 where 0 is no effect and 10 is complete control

Structure (SMILES): CC(C)N(C(=O)n1oc(=O)n(C(C)C#N)c1=O)c1ccc(F)cc1F (centres unmarked) [Compound 432]
- Nutsedge plant response rating [1, 20]: 0
- Nutsedge plant response rating [1, 21]: 0
- Plant response rating, Nutsedge [1, 22]: 0
- Plant response rating, Nutsedge [1, 23]: 0
- Nutsedge plant response rating [1, 24]: 0
- Nutsedge plant response rating [1, 25]: 0
- Nutsedge plant response rating [1, 26]: 0
- Corn plant response rating [2, 20]: 0
- Corn plant response rating [2, 21]: 0
- Plant response rating, Corn [2, 22]: 0
- Plant response rating, Corn [2, 23]: 0
- Corn plant response rating [2, 24]: 0
- Corn plant response rating [2, 25]: 0
- Corn plant response rating [2, 27]: 0
- Corn plant response rating [2, 26]: 0
- Velvetleaf plant response rating [3, 20]: 0
- Velvetleaf plant response rating [3, 21]: 2
- Plant response rating, Velvetleaf [3, 22]: 0
- Plant response rating, Velvetleaf [3, 23]: 0
- Velvetleaf plant response rating [3, 24]: 0
- Velvetleaf plant response rating [3, 25]: 0
- Velvetleaf plant response rating [3, 26]: 0
- Wheat plant response rating [4, 20]: 0
- Wheat plant response rating [4, 21]: 0
- Plant response rating, Wheat [4, 22]: 0
- Plant response rating, Wheat [4, 23]: 0
- Wheat plant response rating [4, 24]: 0
- Wheat plant response rating [4, 25]: 0
- Wheat plant response rating [4, 26]: 0
- Rice plant response rating [5, 28]: 0
- Rice plant response rating [5, 29]: 0
- Rice plant response rating [5, 30]: 0
- Cocklebur plant response rating [6, 20]: 0
- Cocklebur plant response rating [6, 21]: 0
- Plant response rating, Cocklebur [6, 22]: 0
- Plant response rating, Cocklebur [6, 23]: 0
- Cocklebur plant response rating [6, 24]: 0
- Cocklebur plant response rating [6, 25]: 0
- Cocklebur plant response rating [6, 27]: 0
- Cocklebur plant response rating [6, 26]: 0
- Redroot pigweed plant response rating [7, 20]: 0
- Redroot pigweed plant response rating [7, 21]: 0
- Plant response rating, Redroot pigweed [7, 22]: 0
- Plant response rating, Redroot pigweed [7, 23]: 0
- Redroot pigweed plant response rating [7, 24]: 0
- Redroot pigweed plant response rating [7, 25]: 0
- Redroot pigweed plant response rating [7, 26]: 0
- Barnyardgrass plant response rating [8, 28]: 0
- Barnyardgrass plant response rating [8, 29]: 0
- Barnyardgrass plant response rating [8, 31]: 0
- Barnyardgrass plant response rating [8, 30]: 0
- Crabgrass plant response rating [9, 20]: 6
- Crabgrass plant response rating [9, 21]: 6
- Plant response rating, Crabgrass [9, 22]: 3
- Plant response rating, Crabgrass [9, 23]: 5
- Crabgrass plant response rating [9, 24]: 8
- Crabgrass plant response rating [9, 25]: 9
- Crabgrass plant response rating [9, 27]: 0
- Crabgrass plant response rating [9, 26]: 0
- Wild oats plant response rating [10, 20]: 0
- Wild oats plant response rating [10, 21]: 3
- Plant response rating, Wild oats [10, 22]: 0
- Plant response rating, Wild oats [10, 23]: 0
- Wild oats plant response rating [10, 24]: 0
- Wild oats plant response rating [10, 25]: 0
- Wild oats plant response rating [10, 26]: 0
- Rape plant response rating [11, 20]: 0
- Rape plant response rating [11, 21]: 0
- Plant response rating, Rape [11, 22]: 0
- Plant response rating, Rape [11, 23]: 0
- Rape plant response rating [11, 24]: 0
- Rape plant response rating [11, 25]: 0
- Rape plant response rating [11, 26]: 0
- Sugarbeets plant response rating [12, 20]: 0
- Sugarbeets plant response rating [12, 21]: 0
- Plant response rating, Sugarbeets [12, 22]: 0
- Plant response rating, Sugarbeets [12, 23]: 0
- Sugarbeets plant response rating [12, 24]: 0
- Sugarbeets plant response rating [12, 25]: 0
- Sugarbeets plant response rating [12, 26]: 0
- Blackgrass plant response rating [13, 20]: 4
- Blackgrass plant response rating [13, 21]: 4
- Plant response rating, Blackgrass [13, 22]: 0
- Plant response rating, Blackgrass [13, 23]: 0
- Blackgrass plant response rating [13, 24]: 0
- Blackgrass plant response rating [13, 25]: 2
- Blackgrass plant response rating [13, 27]: 0
- Blackgrass plant response rating [13, 26]: 2
- Giant foxtail plant response rating [14, 20]: 6
- Giant foxtail plant response rating [14, 21]: 8
- Plant response rating, Giant foxtail [14, 22]: 0
- Plant response rating, Giant foxtail [14, 23]: 2
- Giant foxtail plant response rating [14, 24]: 6
- Giant foxtail plant response rating [14, 25]: 9
- Giant foxtail plant response rating [14, 27]: 0
- Giant foxtail plant response rating [14, 26]: 3
- Soybean plant response rating [15, 20]: 2
- Soybean plant response rating [15, 21]: 2
- Plant response rating, Soybean [15, 22]: 0
- Plant response rating, Soybean [15, 23]: 0
- Soybean plant response rating [15, 24]: 0
- Soybean plant response rating [15, 25]: 0
- Soybean plant response rating [15, 26]: 1
- B. signalgrass plant response rating ([16]; Postemergence, Rate 250 g/ha, scale 0 to 10, 0 no effect, 10 complete control): 0
- B. signalgrass plant response rating [16, 21]: 0
- Plant response rating, B. signalgrass [16, 22]: 0
- Plant response rating, B. signalgrass [16, 23]: 0
- B. signalgrass plant response rating [16, 24]: 0
- B. signalgrass plant response rating [16, 25]: 0
- B. signalgrass plant response rating [16, 27]: 0
- B. signalgrass plant response rating [16, 26]: 0
- Ducksalad plant response rating [17, 28]: 0
- Ducksalad plant response rating [17, 29]: 0
- Ducksalad plant response rating [17, 31]: 0
- Ducksalad plant response rating [17, 30]: 0
- S. Flatsedge plant response rating [18, 28]: 0
- S. Flatsedge plant response rating [18, 29]: 0
- S. Flatsedge plant response rating [18, 30]: 0
- Morningglory plant response rating [19, 20]: 1
- Morningglory plant response rating [19, 21]: 2
- Plant response rating, Morningglory [19, 22]: 0
- Plant response rating, Morningglory [19, 23]: 0
- Morningglory plant response rating [19, 24]: 0
- Morningglory plant response rating [19, 25]: 0
- Morningglory plant response rating [19, 26]: 1
